The test system of this test is male Fischer rats. The test can be described thus: Days until circadian rhythm synchronized after 6-hour backward/forward phase change of light-and-dark cycle. It counts as in vivo, rat. The conditions noted are these: for days required for synchronization, backward movement of the phase: 6 hours backward; for days required for synchronization, forward movement of the phase: 6 hours forward.

Turning to `CCCCC/C=C\C/C=C\C/C=C\C/C=C\CCCC(=O)OC(COC(=O)CCCCCCC)COC(=O)CCCCCCC` [8A8, 1,3-capryloyl-2-arachidonoyl-glycerol], the “time (days) required for synchronization” value (overall conclusion on ingestion of 8A8 versus control feed) is “shortened”. Further, the “days required for synchronization, backward movement of the phase” value runs as follows: (rats of 2 months age, 8A8-compounded feed (control feed group 3.7 days)) 4.1 days; (rats of 18 months age, 8A8-compounded feed (control feed group 7.28 days)) 5.72 days. In addition, the “days required for synchronization, forward movement of the phase” value reads like this: (rats of 2 months age, 8A8-compounded feed (control feed group 9.8 days)) 9.43 days; (rats of 18 months age, 8A8-compounded feed (control feed group 5.63 days)) 3.32 days.

(Values after patent US9782377B2, “Composition for normalization of infradian rhythm” (SUNTORY HOLDINGS LIMITED, priority 2003, dated 2017).)
